In ChEMBL document CHEMBL1255349, “Comparison of the efficacies of oral beta-lactams in selection of Haemophilus influenzae transformants with mutated ftsI genes” (2008):
In brackets after ≈: the same amount, converted by molar mass.

Legend:
Format in all cases: functional
Haemophilus influenzae [1] = assay: Antimicrobial activity against rifampin-resistant Haemophilus influenzae Rd clone by broth dilution method
Haemophilus influenzae [2] = assay: Antimicrobial activity against beta lactamase-nonproducing ampicillin-resistant Haemophilus influenzae MSC06647 isolate harboring Asn526Lys mutation in penicillin-binding protein 3 by broth dilution method
Haemophilus influenzae [3] = assay: Antimicrobial activity against beta lactamase-nonproducing ampicillin-resistant Haemophilus influenzae MSC06663 isolate harboring Met377Ile, Ser385Thr and Asn526Lys mutations in penicillin-binding protein 3 by broth dilution method

| SMILES | MIC (Haemophilus influenzae [1]) [µg/mL] | MIC (Haemophilus influenzae [2]) [µg/mL] | MIC (Haemophilus influenzae [3]) [µg/mL] |
| --- | --- | --- | --- |
| CC1(C)S[C@@H]2[C@H](NC(=O)[C@H](N)c3ccc(O)cc3)C(=O)N2[C@H]1C(=O)O [AMOXICILLIN] | 0.5 (≈ 1.37 µM) | 4 (≈ 10.9 µM) | 1 (≈ 2.74 µM) |
| CC1(C)S[C@@H]2[C@H](NC(=O)[C@H](N)c3ccccc3)C(=O)N2[C@H]1C(=O)O [AMPICILLIN] | 0.25 (≈ 0.715 µM) | 2 (≈ 5.72 µM) | 1 (≈ 2.86 µM) |
| CC/C=C(\C(=O)N[C@@H]1C(=O)N2C(C(=O)O)=C(COC(N)=O)CS[C@H]12)c1csc(N)n1 [CEFCAPENE] | 0.008 (≈ 0.0176 µM) | 0.25 (≈ 0.551 µM) | 2 (≈ 4.41 µM) |
| C=CC1=C(C(=O)O)N2C(=O)[C@@H](NC(=O)/C(=N\O)c3csc(N)n3)[C@H]2SC1 [CEFDINIR] | 0.25 (≈ 0.632 µM) | 1 (≈ 2.53 µM) | 2 (≈ 5.06 µM) |
| CO/N=C(\C(=O)N[C@@H]1C(=O)N2C(C(=O)OCOC(=O)C(C)(C)C)=C(/C=C\c3scnc3C)CS[C@H]12)c1csc(N)n1 [CEFDITOREN PIVOXIL] | 0.008 (≈ 0.0129 µM) | 0.06 (≈ 0.0967 µM) | 0.5 (≈ 0.805 µM) |
| COCC1=C(C(=O)O)N2C(=O)[C@@H](NC(=O)/C(=N\OC)c3csc(N)n3)[C@H]2SC1 [CEFPODOXIME] | 0.03 (≈ 0.0702 µM) | 1 (≈ 2.34 µM) | 8 (≈ 18.7 µM) |
| CC=CC1=C(C(=O)O)N2C(=O)[C@@H](NC(=O)[C@H](N)c3ccc(O)cc3)[C@H]2SC1 [CEFPROZIL] | 2 (≈ 5.14 µM) | 4 (≈ 10.3 µM) | 4 (≈ 10.3 µM) |
| CO/N=C(\C(=O)N[C@@H]1C(=O)N2C(C(=O)O)=C(COC(N)=O)CS[C@H]12)c1ccco1 [CEFUROXIME] | 0.5 (≈ 1.18 µM) | 2 (≈ 4.71 µM) | 2 (≈ 4.71 µM) |
| C[C@@H](O)[C@H]1C(=O)N2C(C(=O)O)=C(SC3CN(C4=NCCS4)C3)[C@H](C)[C@H]12 [TEBIPENEM] | 0.06 (≈ 0.156 µM) | 1 (≈ 2.61 µM) | 0.25 (≈ 0.652 µM) |
